{"source": "patent US8546529B2", "about": "“Injectable bone regeneration gel containing bone formation enhancing peptide” (Nano Intelligent Biomedical Engineering Corporation Co., …, priority 2007, dated 2013)", "system": "Mesodermal stem cells C2C12", "assay": "Calcification of cells by bone regeneration materials (calcein fluorescence)", "format": "cell-based", "settings": "C2C12 cultured for 14 days in medium for hard tissue formation containing calcein; compared with material containing no peptide", "protocol": "Mesodermal stem cells C2C12 (America Type Culture Collection, CRL-1772) were cultured for 14 days, while adding the injectable bone regeneration materials prepared in Example 1 to a medium for hard tissue formation, containing calcein (fluorescent substance for calcium). The cultured osteoblasts were fixed with 2% glutaraldehyde solution. The fixed cells were treated with 1% triton X-100, and then nuclei were strained with DAPI (blue) and actins were stained with Rhodamine phalloidin (Molecular Probe, red), thus staning the cultured cells.", "data": [{"sequence": "YGLRSKSKKFRRPDIQYPDAT (listed as Homo sapiens) [SEQ ID NO: 6]", "values": [{"measurement": "calcification (calcium fluorescence deposited on extracellular matrixes)", "value": "promotes calcification of cells"}]}]}
